Reference: article PMC7883873, “Discovery of New Catalytic Topoisomerase II Inhibitors for Anticancer Therapeutics” (Frontiers in Oncology, 2021)

Columns and labels:
AR-v7 = test: Immunoblotting of AR protein levels; format: cell-based; details: LNCaP and LNCaP95 cells, 0-20 µM
Experimental: (§1) Cell proliferation rates were measured by using the CellTitre 96 AqueousOne kit (Promega) and bromodeoxyuridine (BrdU) assay kit (Millipore) according to the manufacturer’s protocol as we have described ([51]). Cytotoxicity was evaluated by using the commercial kit (CAT# 8078, ThermoFisher). Culture media was collected and used to measure lactate dehydrogenase (LDH) levels by a colorimetric method following the manufacture’s protocol (ThermoFisher). Cell cycling was assessed by using BrdU incorporation into S-phase DNA by using the APC BrdU flow kit (BD Pharmingen; Franklin Lakes, New Jersey) according to the manufacturer’s protocol. 1 mM of BrdU was added to cells and incubated for 6 h. Cells were incubated with anti-BrdU antibody and stained with 7-AAD before processing the cells for flow cytometry ([52]). Immunoblotting assays followed the standard protocol as we have reported ([51]–[53]).

AR full-length (AR-fl) = test: Immunoblotting of AR protein levels; format: cell-based; details: LNCaP and LNCaP95 cells, 0-20 µM
Experimental: as §1

TOP2A [1] = target: T1, TOP2A (Homo sapiens, UniProt P11388); test: DNA cleavage assay; format: biochemical; set-up: full-length human TOP2A and TOP2B protein (TopoGEN and Inspiralis respectively); purchased TopoGEN TG1001 (human TOP2 assay kit); details: co-treatment with 200 µM etoposide; 1, 100, 200 µM
T1 sequence (P11388 whole entry): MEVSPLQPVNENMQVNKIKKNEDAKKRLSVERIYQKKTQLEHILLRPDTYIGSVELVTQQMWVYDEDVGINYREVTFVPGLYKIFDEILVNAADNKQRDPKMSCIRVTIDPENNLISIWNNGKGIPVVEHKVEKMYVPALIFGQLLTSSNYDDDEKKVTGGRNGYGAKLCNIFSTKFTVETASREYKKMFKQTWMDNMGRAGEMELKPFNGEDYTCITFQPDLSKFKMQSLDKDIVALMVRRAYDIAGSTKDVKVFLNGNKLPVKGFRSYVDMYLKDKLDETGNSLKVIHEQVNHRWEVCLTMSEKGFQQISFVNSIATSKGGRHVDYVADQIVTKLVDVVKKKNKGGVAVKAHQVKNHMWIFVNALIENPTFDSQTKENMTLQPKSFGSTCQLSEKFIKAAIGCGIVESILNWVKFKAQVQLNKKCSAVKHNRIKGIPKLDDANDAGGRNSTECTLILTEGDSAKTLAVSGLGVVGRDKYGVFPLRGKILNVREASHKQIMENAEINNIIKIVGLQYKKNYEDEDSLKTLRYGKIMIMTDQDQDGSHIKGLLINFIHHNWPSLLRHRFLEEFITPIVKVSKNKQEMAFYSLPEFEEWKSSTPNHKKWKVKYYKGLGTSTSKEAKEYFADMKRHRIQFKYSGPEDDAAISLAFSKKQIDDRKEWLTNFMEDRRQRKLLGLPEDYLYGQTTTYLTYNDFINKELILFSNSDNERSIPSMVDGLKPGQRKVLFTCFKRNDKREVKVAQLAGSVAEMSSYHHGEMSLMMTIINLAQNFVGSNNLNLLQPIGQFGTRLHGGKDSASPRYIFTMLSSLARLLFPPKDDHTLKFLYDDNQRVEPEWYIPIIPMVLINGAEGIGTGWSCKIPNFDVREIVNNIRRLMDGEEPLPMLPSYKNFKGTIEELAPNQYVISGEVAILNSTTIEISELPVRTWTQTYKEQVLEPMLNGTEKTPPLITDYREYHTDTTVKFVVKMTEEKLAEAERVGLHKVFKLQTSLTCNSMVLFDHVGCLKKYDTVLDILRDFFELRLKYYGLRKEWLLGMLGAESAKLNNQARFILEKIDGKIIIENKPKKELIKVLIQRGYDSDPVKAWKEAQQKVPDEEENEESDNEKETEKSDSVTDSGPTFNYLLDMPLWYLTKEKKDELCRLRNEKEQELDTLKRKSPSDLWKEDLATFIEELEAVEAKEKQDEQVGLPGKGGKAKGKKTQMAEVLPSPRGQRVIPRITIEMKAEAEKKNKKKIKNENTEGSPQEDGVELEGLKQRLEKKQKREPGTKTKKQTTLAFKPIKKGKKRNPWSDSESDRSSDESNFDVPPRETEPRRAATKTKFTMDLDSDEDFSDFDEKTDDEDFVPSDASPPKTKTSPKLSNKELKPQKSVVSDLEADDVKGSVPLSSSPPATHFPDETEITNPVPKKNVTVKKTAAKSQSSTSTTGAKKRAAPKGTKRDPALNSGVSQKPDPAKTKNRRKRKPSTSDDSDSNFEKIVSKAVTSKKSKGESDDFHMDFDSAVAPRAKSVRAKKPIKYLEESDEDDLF
Experimental: The reactions were incubated in 37C for 30 min and stopped by adding 2 µl of 10% SDS and 1 µl of 250 mM of EDTA, followed by the addition of 50 µg/ml of proteinase K at 45C for 30 min. The reaction was then resolved by electrophoresis on a 1% agarose gel containing […] ethidium bromide in TAE buffer at 60 V. DNA bands were visualized using a gel imager (Gel Doc™ EZ System) and quantified by using the Image Studio™ Lite Quantification Software.

TOP2A [2] = target: T1, TOP2A; test: Relaxation and K-DNA decatenation assays of candidates and T60 derivatives (SAR); format: biochemical; set-up: full-length human TOP2A and TOP2B protein (TopoGEN and Inspiralis respectively); purchased TopoGEN TG1001 (human TOP2 assay kit); details: compared with T60
Experimental: The human TOP2 assay kit (#TG1001, TopoGEN, Buena Vista, CO) and TOP2B (HTB205, Inspiralis, UK) were used for K-DNA decatenation assays. […] The reaction was incubated at 37C for 2 h after which 4 µl stop solution (5× buffer is 5% Sarkosyl, 0.125% bromophenol blue, 25% glycerol) was added. The reaction was resolved by electrophoresis on a 0.8% agarose gel at 60 V and stained with 0.5 µg/ml ethidium bromide for 15 min. DNA bands were visualized using a gel imager (Gel Doc™ EZ System) and quantified using the Image Studio™ Lite Quantification Software.
The human TOP2A and TOP2B were used to perform DNA relaxation assays. […] The reaction was incubated at 37C for 2 h and stopped by adding 2 µl of 10% SDS and 1 µl of 250 mM of EDTA, followed by the addition of 50 µg/ml of proteinase K at 45 C for 1 h. The reaction was then resolved by electrophoresis on a 1% agarose gel at 80 V and stained with 0.5 µg/ml ethidium bromide for 15 min. DNA bands were visualized using a gel imager (Gel Doc™ EZ System) and quantified using the Image Studio™ Lite Quantification Software.

TOP2A (431–1193) = target: T2, TOP2A (431–1193) (Homo sapiens, UniProt P11388); test: Electrophoresis mobility shift assay (EMSA); format: binding; details: 200 µM; 30 µM protein, 300 nM 5ZRF oligo
T2 construct: was incorporated with TOP2A (431–1193); made in house; host or cells: Escherichia coli BL21 co-expressing biotin ligase
T2 sequence (P11388 431-1193): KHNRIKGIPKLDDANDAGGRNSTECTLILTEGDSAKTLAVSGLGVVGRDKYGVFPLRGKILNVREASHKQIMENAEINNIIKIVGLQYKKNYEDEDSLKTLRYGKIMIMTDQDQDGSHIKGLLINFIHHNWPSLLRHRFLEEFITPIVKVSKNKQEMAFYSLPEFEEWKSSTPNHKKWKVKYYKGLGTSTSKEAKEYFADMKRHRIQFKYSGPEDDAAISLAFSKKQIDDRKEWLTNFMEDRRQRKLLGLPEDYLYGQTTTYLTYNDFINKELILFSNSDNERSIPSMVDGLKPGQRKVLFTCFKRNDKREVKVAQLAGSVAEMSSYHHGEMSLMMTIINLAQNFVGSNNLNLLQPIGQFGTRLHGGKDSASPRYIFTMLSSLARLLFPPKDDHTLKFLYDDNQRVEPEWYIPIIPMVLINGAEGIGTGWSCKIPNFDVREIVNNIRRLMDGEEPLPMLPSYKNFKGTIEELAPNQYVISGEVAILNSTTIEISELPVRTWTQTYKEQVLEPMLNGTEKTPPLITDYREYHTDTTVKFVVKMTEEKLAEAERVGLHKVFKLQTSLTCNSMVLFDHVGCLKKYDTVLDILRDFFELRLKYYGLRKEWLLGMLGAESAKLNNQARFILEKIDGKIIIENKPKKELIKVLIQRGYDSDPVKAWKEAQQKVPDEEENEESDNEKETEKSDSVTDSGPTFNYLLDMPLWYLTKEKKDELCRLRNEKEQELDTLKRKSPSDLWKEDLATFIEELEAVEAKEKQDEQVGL
Experimental: EMSA followed the standard protocols as we and others described with minor modifications ([54]–[56]). The double-strand DNA oligo, 5ZRF (AGCCGAGCTGCAGCTCGGCT labeled by IRDye700) was purchased from IDT (Coralville, USA). Human TOP2 (431–1193), TOP2A (TopoGEN) or TOP2B (Inspiralis) proteins were incubated with 300 nM of 5ZRF oligo in a standard 20 µl EMSA reaction in a reaction buffer containing 20 mM HEPES-NaOH, pH 7.4, 2 mM DTT, 3 mM MgCl2, 0.05% NP-40, protease inhibitors, and 0.1 µg poly[dI:dC]. After incubation for 30 min at 37C, reactions were loaded onto 4% non-denatured polyacrylamide gel in 0.5× TBE buffer. The DNA oligo bands were visualized by using the Li-Cor Odyssey 9120 Infrared Imaging System.

[3] = test system: AR proteins in LNCaP cells; test: AR nuclear localization, cytoplasmic/nuclear western blotting; format: cell-based; details: 20 µM, 24 h
TOP2A [4] = target: T1, TOP2A; test: Cellular thermal shift assay; format: cell-based; set-up: endogenous in cells; host or cells: K562 (the thermal shift text says HeLa, the legend says K562); K562 for chromatin fractionation; details: 20 µM; vehicle 40C; Hela cells
Experimental: In the thermal shift assays, cells were treated with vehicle or T60 for 1 h and split into equal aliquots to be heated at 37 to 46°. Protein lyses were collected to perform immunoblotting assays with TOP2 antibodies (Abcam 12318, Santa Cruz sc-13059 & sc-365071). Our chromatin fractionation assays followed the protocol as previously described (Méndez & Stillman, 2000; Wysocka, Reilly, & Herr, 2001). Briefly, K562 cells (4 × 10 ([7]) cells/ml) were collected and re-suspended in buffer A (10 mM HEPES [pH 7.9], 10 mM KCl, 1.5 mM MgCl2, 0.34 M sucrose, 10% glycerol, 1 mM DTT, and protease inhibitor cocktail), before Triton X-100 was added to final concentration at 0.1%. Cells were then incubated on ice for 10 min, and nuclei were collected by centrifugation at speed of 1,300g for 4 min at 4°C. The nuclei were then washed once with buffer A and then incubated with buffer B (3 mM EDTA, 0.2 mM EGTA, 1 mM DTT, and protease inhibitor cocktail [ROCHE]) for 30 min in ice. Insoluble chromatin was collected by centrifugation at 1,700g for 4 min at 4°C, and washed once with buffer B. Chromatin associated proteins were extracted by incubation with Buffer C [500 mM Tris-HCl (pH 6.8), 500 mM NaCl, and protease inhibitor cocktail (ROCHE)] followed by brief sonication. The supernatant was collected to perform immunoblotting assays with TOP2 antibodies as we have described ([51]–[53]).

K562 cells = test: Cell proliferation, MTS assay; format: cell-based; details: 0-20 µM, 0-72 h
Experimental: as §1

## O=C(Nc1ccc(Nc2ccccc2)cc1)c1ccc[nH]c1=S [T60]
AR-v7
  Protein levels of AR-v7: inhibited the protein levels
AR full-length (AR-fl)
  Protein levels of AR full-length: inhibited the protein levels
TOP2A [1]
  Prevention of etoposide-induced DNA cleavage, TOP2A: prevented
TOP2A [2]
  Activity on TOP2: less active
TOP2A (431–1193)
  Abolishment of TOP2A (431–1193)-induced upshifted DNA band: abolished
[3]
  Nuclear localization of AR proteins, LNCaP: reduced nuclear localization
TOP2A [4]
  Temperature up to which TOP2A protein is stabilized: up to 43 C
K562 cells
  K562 cell proliferation: inhibited K562 cell proliferation in a dose- and time-dependent manner
